Measured values published in patent US6489137B2, “Detection of loss of the wild-type huBUB1 gene” (Chiron Corporation, priority 1997, dated 2002).

Biological target: T1, huBUB1 kinase (Homo sapiens, UniProt O43683)
T1 construct: Plasmid p385-1, encoding full-length huBUB1 in the vector pCR3.1 (Invitrogen), was employed as a backbone for further constructs; made in house; host or cells: cell-free coupled in vitro transcription/translation (T7 TnT kit, Promega) from pCR3.1 plasmids, anti-FLAG immunopurified
Test: in vitro huBUB1 kinase (autophosphorylation) assay
Type: biochemical
Details: for relative huBUB1 autophosphorylation: immunopurified FLAG-BUB3/BUB1, labeled-ATP kinase reaction, SDS-PAGE, phosphorimager; for inhibition of huBUB1 kinase (result in words): tested at 5, 10 and 20 μM
Excerpt: A set of known compounds was screened using an in vitro huBUB1 kinase assay. Tested compounds included olomucine, myrecetin, hypericin, iodotubercidin, ellagic acid, emodin, and staurosporine. The relative specificity of these compounds towards known kinases has been reported in the literature. Some of these compounds can be classified as relatively specific kinase inhibitors (e.g., olomucine, myrecetin, ellagic acid), while other inhibitors are known to inhibit a broad range of kinase (e.g., hypericin, iodotubercidin, staurosporine).
Unlabeled FLAG-BUB3/BUB1 in vitro translation products were immunopurified with anti-FLAG. […] kinase reactions were performed in the presence and absence of inhibitors in 20 μl reaction volumes. Labeled reaction products were separated on SDS-PAGE gels, and relative huBUB1 autophosphorylation was determined with the aid of a phosphorimager. An initial screen was conducted using 10 and 20 μM of each compound. Compounds with a positive result in this screen were then retested at 5, 10 and 20 μM (Table 1).

T1 sequence (O43683 whole entry): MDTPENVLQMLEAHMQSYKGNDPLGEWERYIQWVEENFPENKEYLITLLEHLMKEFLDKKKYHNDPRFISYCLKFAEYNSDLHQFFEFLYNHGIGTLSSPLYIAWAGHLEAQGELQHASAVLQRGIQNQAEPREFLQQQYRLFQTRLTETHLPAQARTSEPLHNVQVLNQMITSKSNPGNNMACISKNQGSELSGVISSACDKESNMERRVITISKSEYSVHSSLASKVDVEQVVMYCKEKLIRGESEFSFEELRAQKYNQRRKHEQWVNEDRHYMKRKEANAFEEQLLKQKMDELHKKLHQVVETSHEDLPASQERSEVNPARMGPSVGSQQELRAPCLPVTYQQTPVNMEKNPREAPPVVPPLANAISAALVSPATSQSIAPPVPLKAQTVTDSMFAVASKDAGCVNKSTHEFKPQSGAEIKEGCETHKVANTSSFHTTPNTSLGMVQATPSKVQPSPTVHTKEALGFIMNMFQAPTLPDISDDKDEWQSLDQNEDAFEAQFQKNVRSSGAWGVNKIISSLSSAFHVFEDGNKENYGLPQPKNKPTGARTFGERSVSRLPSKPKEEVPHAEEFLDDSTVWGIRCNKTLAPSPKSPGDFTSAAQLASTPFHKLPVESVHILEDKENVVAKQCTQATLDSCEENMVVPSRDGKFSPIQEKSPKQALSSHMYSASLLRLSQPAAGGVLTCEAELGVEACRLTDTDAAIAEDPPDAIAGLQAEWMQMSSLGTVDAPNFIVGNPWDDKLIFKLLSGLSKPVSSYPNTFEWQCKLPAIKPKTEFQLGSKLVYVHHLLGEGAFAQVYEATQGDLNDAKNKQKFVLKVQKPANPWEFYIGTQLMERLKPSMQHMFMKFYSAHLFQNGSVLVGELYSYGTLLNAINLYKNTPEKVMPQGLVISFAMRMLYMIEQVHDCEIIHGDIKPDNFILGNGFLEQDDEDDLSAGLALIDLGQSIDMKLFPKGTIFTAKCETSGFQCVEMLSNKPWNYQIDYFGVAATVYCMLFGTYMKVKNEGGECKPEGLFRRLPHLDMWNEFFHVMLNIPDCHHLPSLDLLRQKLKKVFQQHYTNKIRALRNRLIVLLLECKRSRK
T1 sequence (O43684 whole entry partner): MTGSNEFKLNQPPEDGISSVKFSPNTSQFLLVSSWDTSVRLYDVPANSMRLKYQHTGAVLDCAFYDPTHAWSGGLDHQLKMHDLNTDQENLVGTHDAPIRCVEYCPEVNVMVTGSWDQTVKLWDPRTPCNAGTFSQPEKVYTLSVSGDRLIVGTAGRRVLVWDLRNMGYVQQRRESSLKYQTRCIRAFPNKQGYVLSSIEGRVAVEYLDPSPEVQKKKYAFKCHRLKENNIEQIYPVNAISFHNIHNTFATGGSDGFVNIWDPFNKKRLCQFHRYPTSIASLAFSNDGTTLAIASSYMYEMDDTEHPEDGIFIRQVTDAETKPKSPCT

Row | SMILES | relative huBUB1 autophosphorylation (5 μM compound) | relative huBUB1 autophosphorylation (10 μM compound) | relative huBUB1 autophosphorylation (20 μM compound) | inhibition of huBUB1 kinase (result in words)
1 | Cc1cc(O)c2c(=O)c3c(O)cc(O)c4c5c(O)cc(O)c6c(=O)c7c(O)cc(C)c8c1c2c(c34)c(c78)c65 [hypericin] | 0.63 +/− 0.07 | 0.47 +/− 0.13 | 0.36 +/− 0.05 | 
2 | Nc1ncnc2c1c(I)cn2[C@@H]1O[C@H](CO)[C@@H](O)[C@H]1O [iodotubercidin] | 0.56 +/− 0.08 | 0.41 +/− 0.09 | 0.32 +/− 0.05 | clearly inhibited
3 | CN[C@@H]1C[C@H]2O[C@@](C)([C@@H]1OC)n1c3ccccc3c3c4c(c5c6ccccc6n2c5c31)C(=O)NC4 [staurosporine] | 0.45 +/− 0.11 | 0.49 +/− 0.11 | 0.26 +/− 0.04 | clearly inhibited
